Where no end group is shown, it is not given here.
Experiments:
mKate-E0771 cells = experiment: MTT cell viability assay; assay type: cell-based, mouse; conditions: 1 h; for Cell viability (MTT), normalized to untreated cells: 37 °C
Experimental: Supplementary Figure 9. Cell viability assays in mKate-E0771 cancer cells. mKate-E0771 cells were plated in 96-well plates (50,000 cells well-1) and incubated at the […]
Cell viability was determined using a commercially available MTT kit (Invitrogen) with values normalized to untreated cells.
Data presented as mean values±SEM (2 independent experiments with 3 replicates for each). P values were obtained from ONE-ANOVA tests with multiple comparisons.
Source data provided as a Source Data file.
(1 picture or pasted object on this page, not shown here)

human GzmB (hGzmB) = molecular target: T1, human GzmB (hGzmB) (Homo sapiens, UniProt P10144); experiment: Fluorescence assay with recombinant hGzmB (fluorogenic response, time course); assay type: biochemical; conditions: for t50: probe 25 μM, hGzmB 20 nM
T1 construct: For active GzmB vs pro-GzmB, p < 0.0001
T1 sequence (P10144 21-247): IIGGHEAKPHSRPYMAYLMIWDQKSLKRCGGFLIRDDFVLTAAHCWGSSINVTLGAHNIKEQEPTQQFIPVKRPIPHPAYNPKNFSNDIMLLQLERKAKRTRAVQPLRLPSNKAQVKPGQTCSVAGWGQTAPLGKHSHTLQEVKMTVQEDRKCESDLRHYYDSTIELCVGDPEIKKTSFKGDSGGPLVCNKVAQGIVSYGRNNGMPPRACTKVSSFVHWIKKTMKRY
Experimental: Fluorescence-based assays with different enzymes were performed in the appropriate buffers. Probes (25 μM) were added to enzymes (20 nM or at the indicated concentrations) in 384-well plates and their fluorescence emission was recorded at 450 nm (for AMC) or 510 nm (for BODIPY) at 37 °C using a Synergy H1 Hybrid spectrophotometer. In experiments with Ac-IEPD-CHO (50 μM), the inhibitor was preincubated for 1 h with GzmB before the addition of any probe.

E0771 cells = experiment: Flow cytometry of E0771 cells in co-culture with CD8+ T cells; assay type: cell-based, mouse; conditions: H5 5 μM
Experimental: Treatments with staurosporine (1 μM) were for 1 h. […]
mouse CD8+ T cells and mKate-E0771 cells. b) Representative flow cytometry contour plots of E0771 cells in: left) co-cultures of E0771 cells (50,000 cells well-1) and activated […]
cells well-1), right) E0771 alone cells treated with staurosporine (1 µM, 1 h). c) Representative flow cytometry contour plots of CD8+ T cells in: left) co-cultures of E0771 […]
2 h) murine CD8+ T cells (200,000 cells well -1). All cultures in b) and c) were equally […]
with and without preincubation of the GzmB inhibitor Ac -IEPD-CHO. Data presented as […]
633/670 nm (for AF647-Annexin V). Representative plots from independent experiments performed in triplicate. Source data in d provided as a Source Data file.

recombinant mouse GzmB = experiment: Reactivity against recombinant mouse GzmB (fluorescence); assay type: biochemical; conditions: 25 μM, 90 min, 37 °C
Experimental: and H5m (both at 25 μM) after incubation for 90 min at 37 °C with recombinant mouse
pro-GzmB (100 nM) after pre-activation with mouse cathepsin C (5.5 μg mL-1) for 4 h.
Excitation/emission wavelengths: 450 nm /510 nm. Data presented as mean values±SEM
(3 independent experiments with 3 technical replicates). Source data provided as a […]

Work on “IEPDAL [H5, FRET hexapeptide IEPDAL with BODIPY-FL fluorophore at the N-terminal end and Dabcyl quencher]” yielded a Cell viability (MTT), normalized to untreated cells (mKate-E0771 cells; H5 3.1 (head prints mM), Data 1) of 107%, a Cell viability (MTT), normalized to untreated cells (mKate-E0771 cells; H5 3.1 (head prints mM), Data 2) of 102% and a Cell viability (MTT), normalized to untreated cells (mKate-E0771 cells; H5 3.1 (head prints mM), Data 3) of 89%. It also gave a Cell viability (MTT), normalized to untreated cells (mKate-E0771 cells; H5 3.1 (head prints mM), Data 4) of 85%, a Cell viability (MTT), normalized to untreated cells (mKate-E0771 cells; H5 3.1 (head prints mM), Data 5) of 94% and a Cell viability (MTT), normalized to untreated cells (mKate-E0771 cells; H5 3.1 (head prints mM), Data 6) of 89%. It also gave a Cell viability (MTT), normalized to untreated cells (mKate-E0771 cells; H5 6.3 (head prints mM), Data 1) of 99%, a Cell viability (MTT), normalized to untreated cells (mKate-E0771 cells; H5 6.3 (head prints mM), Data 2) of 93% and a Cell viability (MTT), normalized to untreated cells (mKate-E0771 cells; H5 6.3 (head prints mM), Data 3) of 97%. It also gave a Cell viability (MTT), normalized to untreated cells (mKate-E0771 cells; H5 6.3 (head prints mM), Data 4) of 95%, a Cell viability (MTT), normalized to untreated cells (mKate-E0771 cells; H5 6.3 (head prints mM), Data 5) of 89% and a Cell viability (MTT), normalized to untreated cells (mKate-E0771 cells; H5 6.3 (head prints mM), Data 6) of 90%. It also gave a Cell viability (MTT), normalized to untreated cells (mKate-E0771 cells; H5 12.5 (head prints mM), Data 1) of 107%, a Cell viability (MTT), normalized to untreated cells (mKate-E0771 cells; H5 12.5 (head prints mM), Data 2) of 106% and a Cell viability (MTT), normalized to untreated cells (mKate-E0771 cells; H5 12.5 (head prints mM), Data 3) of 99%. The Cell viability (MTT), normalized to untreated cells (mKate-E0771 cells; H5 12.5 (head prints mM), Data 4) was 96%, the Cell viability (MTT), normalized to untreated cells (mKate-E0771 cells; H5 12.5 (head prints mM), Data 5) was 84% and the Cell viability (MTT), normalized to untreated cells (mKate-E0771 cells; H5 12.5 (head prints mM), Data 6) was 88%. It also gave a Cell viability (MTT), normalized to untreated cells (mKate-E0771 cells; H5 25 (head prints mM), Data 1) of 107%, a Cell viability (MTT), normalized to untreated cells (mKate-E0771 cells; H5 25 (head prints mM), Data 2) of 102% and a Cell viability (MTT), normalized to untreated cells (mKate-E0771 cells; H5 25 (head prints mM), Data 3) of 99%. It also gave a Cell viability (MTT), normalized to untreated cells (mKate-E0771 cells; H5 25 (head prints mM), Data 4) of 76%, a Cell viability (MTT), normalized to untreated cells (mKate-E0771 cells; H5 25 (head prints mM), Data 5) of 81% and a Cell viability (MTT), normalized to untreated cells (mKate-E0771 cells; H5 25 (head prints mM), Data 6) of 81%. For the same substance, the cytotoxicity (mKate-E0771 cells; MTT, 37 °C (Fig. S9)) was “not cytotoxic”, the “specificity for hGzmB over other enzymes” value (human GzmB (hGzmB); caspases, granzymes, MMPs, neutrophil elastase, pro-hGzmB) was “minimal response to other enzymes” and the t50 (human GzmB (hGzmB); Data 1) was 7 min. The t50 (human GzmB (hGzmB); Data 2) was 7 min, the t50 (human GzmB (hGzmB); Data 3) was 7 min and the “cancer cells double-stained with H5 and Annexin V-AF647” value (E0771 cells; E0771-La2-NLR cells cultured with activated T cells) was “over 80%”. The “H5 +ve E0771 cells” value (E0771 cells; E0771 alone, staurosporine 1 μM, 1 h, replicate 1) was 2.3%, the “H5 +ve E0771 cells” value (E0771 cells; E0771 alone, staurosporine 1 μM, 1 h, replicate 2) was 1.69% and the “H5 +ve E0771 cells” value (E0771 cells; E0771 alone, staurosporine 1 μM, 1 h, replicate 3) was 2.6%. For the same substance, the “H5 +ve E0771 cells” value (E0771 cells; co-culture with active CD8+ T cells (24 h IL-2), replicate 1) was 79%, the “H5 +ve E0771 cells” value (E0771 cells; co-culture with active CD8+ T cells (24 h IL-2), replicate 2) was 80% and the “H5 +ve E0771 cells” value (E0771 cells; co-culture with active CD8+ T cells (24 h IL-2), replicate 3) was 76%. For the same substance, the “H5 +ve E0771 cells” value (E0771 cells; co-culture with inactive CD8+ T cells (2 h IL-2), replicate 1) was 17%, the “H5 +ve E0771 cells” value (E0771 cells; co-culture with inactive CD8+ T cells (2 h IL-2), replicate 2) was 18% and the “H5 +ve E0771 cells” value (E0771 cells; co-culture with inactive CD8+ T cells (2 h IL-2), replicate 3) was 27%. The “response to mouse GzmB” value (recombinant mouse GzmB) was “good response”.

Reference: article PMC9061857, “A fluorogenic probe for granzyme B enables in-biopsy evaluation and screening of response to anticancer immunotherapies” (Nature Communications, 2022)
